Data on 97 compounds can be found in ChEMBL document CHEMBL3507680, “University of Dundee, Gates Library screen for HepG2 cell viability”.

Molecules are shown by their SMILES.

A short description of this series: Human HepG2 cell viability assay in 384 well format. In kind it is toxicity, cell-based. On the set-up: dose 125 nL, time 70.5 hour; concentration not given beside the values. The following applies: HepG2 cells, read-out: Inhibition.
Consider `O=C(c1cc2ccccc2[nH]1)N1CCCCC1Cn1cccn1` (configuration not stated), for which the cytotoxicity at 70.5 h is -1.58%. Next, `CCCc1nn(Cc2ccc(Br)s2)c(=O)o1`: -23.4%; `Cn1cc(CCC(=O)N2C[C@H]3CC[C@@H]2CN(Cc2cccnc2)C3)cn1`: 12.2%; `Cc1ccccc1C(C(=O)N(Cc1cnn(C)c1)CC(C)C)N(C)C` (configuration not stated): -9.52%. For the compound `Cc1c(CN2CCCCC2)c(O)n(CCCO)c(=O)c1C#N`, the cytotoxicity at 70.5 h was -4.27%. As to `CCc1noc(C)c1C(=O)N1CCCC1c1c(C)nn(C)c1C` (configuration not stated), the cytotoxicity at 70.5 h is -1.9%. With `CCn1cc(CN2CCCC3(CCC(=O)N(CCC(C)C)C3)C2)cn1` (configuration not stated), the cytotoxicity at 70.5 h was -1.61%. For the compound `Cc1cc(CN2CCC(C3CCN(Cc4cccnc4)CC3)C2)[nH]n1` (configuration not stated), the cytotoxicity at 70.5 h was -6.23%. On to `Cc1nc(-c2cnn(C)c2)nc2c1CN(C(=O)c1cccnc1)CC2`, for which the cytotoxicity at 70.5 h was -2.03%.

As for `O=C(Nc1ccnc(OC2CCOC2)c1)c1cccs1` (configuration not stated), the cytotoxicity at 70.5 h is -4.23%.

Take `c1cc2c(cc1CN1CCC(Cc3noc(C4CC4)n3)CC1)OCCO2`: the cytotoxicity at 70.5 h worked out at 20.2%.

On to `CN1CCC2(CC1)CNC(=O)c1ccccc1O2`, for which the cytotoxicity at 70.5 h was -13.6%.

`Cc1cc(NC(=O)CN2CCc3cncnc3C2)on1`: the cytotoxicity at 70.5 h came to 3.49%. Regarding `CSc1ccccc1C(=O)N(C)C1CCCN(CCc2ccccc2)C1` (configuration not stated), the cytotoxicity at 70.5 h is -5.22%.

On to `COC[C@@]12CCO[C@@H]1CCN(C(=O)COc1ccc(C)cc1)C2`, for which the cytotoxicity at 70.5 h was -2.71%. For the compound `Cc1noc(C)c1CN1C[C@@H]2CN(C(=O)c3cnccn3)C[C@@H]2C1`, the cytotoxicity at 70.5 h came out at 0.0874%. As for `COCC(=O)N1CCN(S(=O)(=O)c2ccccc2)[C@@H](C(=O)OC)C1`, the cytotoxicity at 70.5 h is -5.08%.

As for `CC(=O)N1N=C(c2ccccc2)OC1C(=O)NCCc1ccc(Cl)cc1` (configuration not stated), the cytotoxicity at 70.5 h is 8.17%. To `COc1c(Cl)cccc1NCc1csc(NC(C)=O)n1` belongs 3.58%; to `COC(=O)c1ccc(N2CCN(C(=O)c3cnc(C)cn3)C(C)C2)cc1` (configuration not stated), -11%. Next, `COc1ccc(COCC(O)CNC(=O)c2cccc(OC)c2)cc1` (configuration not stated): -0.933%.

With `Cc1cc(C(=O)N2CCCC(C)C2)ccc1NCC(=O)N1CCOCC1` (configuration not stated), the cytotoxicity at 70.5 h is -2.64%. Regarding `CC(C)(C)OC(=O)NCCC(=O)NCC(O)c1cccc(F)c1` (configuration not stated), the cytotoxicity at 70.5 h was -0.447%. For the compound `CN1CCCN(C(=O)c2ccn3ccnc3c2)CC1`, the cytotoxicity at 70.5 h was 6.21%. Take `CN(C(=O)c1ccccn1)c1nnc(C2CCOC2)s1` (configuration not stated): the cytotoxicity at 70.5 h is -7.71%. Next, `CCOc1ccccc1C(N)CC(C)C` (configuration not stated): -0.686%. Turning to `Cc1ccc(NC(=O)CNC(C)CN2CCCCC2)c(F)c1` (configuration not stated), the cytotoxicity at 70.5 h was determined as 6.42%. In the case of `N#Cc1ccc(C(=O)N2C[C@H](OCc3cccnc3)[C@H]3COC[C@H]32)cc1`, the cytotoxicity at 70.5 h turned out to be 3.47%.

In the case of `CC(C)n1ccc(-c2cc(C(=O)N3CCCC3)c3ccccn23)n1`, the cytotoxicity at 70.5 h was determined as 39.5%. Turning to `Cc1cc2c(=O)n3c(nc2s1)CCN(C(=O)c1cnn(C)c1C)CC3`, the cytotoxicity at 70.5 h was -14.8%.

Take `CCN(C)C[C@@H]1CN(Cc2cccc(O)c2)C[C@@H]1CO`: the cytotoxicity at 70.5 h was -11.8%. As for `CCC(OC)C(=O)NCc1cc2n(n1)CCCN(C1CCCCC1)C2` (configuration not stated), the cytotoxicity at 70.5 h is -9.86%. Next, `CNS(=O)(=O)c1cccc(C(C)NCc2ccc(F)cc2F)c1` (configuration not stated): -9.82%; `Cc1nc(N2C[C@@H](CN3CCCCC3)[C@@H](CO)C2)c2sccc2n1`: 8.31%; `c1cc(CN2CCCN(c3ccc4cc[nH]c4n3)CC2)ccn1`: -1.4%. With `CN(Cc1cnn(-c2ccccc2)n1)CC1CCCN1c1cccnn1` (configuration not stated), the cytotoxicity at 70.5 h was 4.15%. In the case of `O=C(NCc1ccccc1)C1CN(c2ccccn2)CCO1` (configuration not stated), the cytotoxicity at 70.5 h is -15.5%. Turning to `COc1ccc(C[C@H]2CN(c3nnc(C)s3)CC[C@@H]2OC)cc1`, the cytotoxicity at 70.5 h was -0.42%. For `COc1ncccc1CN1Cc2nnn(C)c2C(COCC2CC2)C1` (configuration not stated), the cytotoxicity at 70.5 h came to 1.61%. On to `COc1cc(CNCCn2cccn2)c2c(c1)CC(C)O2` (configuration not stated), for which the cytotoxicity at 70.5 h stood at 7.89%. To `CC(C)c1[nH]c2ncccc2c1CN1CCN(S(=O)(=O)N(C)C)CC1` belongs -7.69%. For the compound `CCC1=N[C@@]2(CC[C@@H]3CN(C(=O)NCC4CCCCC4)C[C@@H]32)C(=O)N1`, the cytotoxicity at 70.5 h is -2.69%. Regarding `O=C(c1ccc2sccc2c1)N1CCC(C(=O)O)(n2cccn2)CC1`, the cytotoxicity at 70.5 h is -6.51%. Next, `CN1C2(CCN(Cc3ccc(F)cc3)C2)c2ccccc2S1(=O)=O` (configuration not stated): 13.5%. As for `CCS(=O)(=O)N1CCN(c2cc(-n3cnc(C)c3C)nc(C)n2)CC1`, the cytotoxicity at 70.5 h is -2.19%.

Turning to `Cc1noc(C)c1CN1CCO[C@H]2CN(Cc3cnn(C)c3)C[C@H]21`, the cytotoxicity at 70.5 h is -4.66%. Regarding `CCCC(=O)NCCc1nc2cc(-c3ccc(OC)cc3)ncn2n1`, the cytotoxicity at 70.5 h was -8.47%. On to `CCCN1CCC2(C1)c1ccccc1S(=O)(=O)N2Cc1ccccc1` (configuration not stated), for which the cytotoxicity at 70.5 h stood at 3.08%. Take `Cc1cc(C)n(-c2ccc(N3CCCSCC3)nc2)n1`: the cytotoxicity at 70.5 h was -0.674%. With `O=C(NCc1nnc2n1CCC2)c1cn(-c2ccccc2)nn1`, the cytotoxicity at 70.5 h was -5.59%. On to `CC(NC(=O)NCCCn1cncn1)c1ccncc1` (configuration not stated), for which the cytotoxicity at 70.5 h came to 2.26%. To `O=C(NCCc1coc(-c2ccc(F)cc2)n1)NC1CC1` belongs -3.96%; to `CN(C)c1ncnc2c1CCN(S(=O)(=O)c1ccccc1C(F)(F)F)C2`, 1.88%; to `COc1ccccc1C(C)(C)NC(=O)c1cc(NC(C)=O)ccc1F`, -6.53%. To `O=C(C1CCOC1)N1CCC(OCc2ccccc2)CC1` (configuration not stated) belongs -5.49%; to `CNc1ccnc(N(C)Cc2cc(-c3cccs3)n[nH]2)n1`, 32.5%. Consider `Cn1ccnc1C(=O)NCc1cc(=O)n2c(n1)CN(CC1CC1)CCC2`, for which the cytotoxicity at 70.5 h is -4.68%.

Take `Cc1cccc(OC2CCN(C(=O)NCc3cc[nH]n3)CC2)c1C`: the cytotoxicity at 70.5 h worked out at 0.923%. For `COc1cccc(CNc2cc(CO)ccc2Cl)c1`, the cytotoxicity at 70.5 h was -8.65%. Regarding `O=C(c1ccco1)N1CC[C@@H](N2CCOCC2)[C@@H]1Cc1ccccc1`, the cytotoxicity at 70.5 h is -7.17%. Take `O=c1c(CN2CCCCC2)coc2ccc(Cl)cc12`: the cytotoxicity at 70.5 h is -7.22%. Next, `CNC(=O)C1CCCN(C(=O)C2CCC2)C1` (configuration not stated): -11.6%. On to `O=C(CCCOc1ccccc1Cl)N1CCCC(n2cncn2)C1` (configuration not stated), for which the cytotoxicity at 70.5 h came out at 11%. As for `O=C(CN1C(=O)CCNC1=O)N1CCOC(c2ccc(F)cc2)C1` (configuration not stated), the cytotoxicity at 70.5 h is -2.25%. Next, `COCCC1CCN(CC(C)n2cnc3ccccc32)CC1` (configuration not stated): -17.3%. In the case of `OCCOc1ccc(NCc2cccc3cn[nH]c23)cn1`, the cytotoxicity at 70.5 h came out at 0.12%.

`CCO[C@@H]1CC[C@H]2[C@H]1OCCN2Cc1ccoc1`: the cytotoxicity at 70.5 h was -1.39%. Take `COc1ccc(C(=O)Nc2c(C)nn(C(C)C)c2C)cc1`: the cytotoxicity at 70.5 h worked out at 23.1%. For `Cc1cc(-c2nc(-c3ccccn3)nn2C2CCN(C)CC2)nc(C)n1`, the cytotoxicity at 70.5 h was -3.28%. Regarding `Cc1ccccc1SC1CCN(C(=O)[C@@H]2C[C@@H](N)CN2)CC1`, the cytotoxicity at 70.5 h was -2.11%.

As for `CCc1cnc(CNc2ccc(C(=O)N3CCCC(C)C3)cc2C)o1` (configuration not stated), the cytotoxicity at 70.5 h is -10.4%. In the case of `Cc1cccc(NS(=O)(=O)c2cnn(C)c2)c1C#N`, the cytotoxicity at 70.5 h is -12.8%. Turning to `CCN(C)c1ncnc2c1CCN(C(=O)[C@H]1CCCO1)CC2`, the cytotoxicity at 70.5 h was -9.23%. As to `O=C(c1cocn1)N1CCC[C@]2(C[C@@H](OCC3CC3)CO2)C1`, the cytotoxicity at 70.5 h was -7.29%.

For the compound `C[C@@H]1CN(C2CCN(c3ccccc3F)CC2)C[C@]1(C)O`, the cytotoxicity at 70.5 h was -6.48%.

`O=C1Nc2ccccc2CNC12CCN(CC1CC1)CC2`: the cytotoxicity at 70.5 h was -9.09%. On to `CS(=O)(=O)NC1CCCN(Cc2ccccn2)C1` (configuration not stated), for which the cytotoxicity at 70.5 h was -1.75%. Regarding `Cn1nc2c(cc1=O)CN(Cc1nnc(-c3ccco3)o1)CC2`, the cytotoxicity at 70.5 h was -3.38%.

`CO[C@H]1CN(C(C)C)C[C@@H]1NC(=O)Nc1ccc2oc(C)cc2c1`: the cytotoxicity at 70.5 h is 26.1%. Turning to `O=C(CS(=O)(=O)Cc1cc(Cl)c2c(c1)OCCCO2)NCC1CC1`, the cytotoxicity at 70.5 h is -3.53%. Turning to `COc1cc(CNCC(O)c2ccc(F)c(F)c2)cc2c1OCO2` (configuration not stated), the cytotoxicity at 70.5 h was determined as 29.9%. Next, `Cc1cnn(C2CCCN(C(=O)Cc3c(C)nn(C)c3C)C2)c1` (configuration not stated): 0.294%. For `CC(C)CN1C[C@@H]2C(=O)NC3(CCN(C(=O)c4cccnc4)CC3)[C@@H]2C1`, the cytotoxicity at 70.5 h was -9.79%. To `CN(C)CC(C)(C)Cn1cnc(-c2ccccc2)c1-c1ncc[nH]1` belongs 11.7%; to `O=C1CCC(=O)N1CCN1CCC(=Cc2ccccc2)CC1`, -0.346%. As for `CCc1cnc(N2CCC3(CC(=O)N(Cc4csc(C)n4)C3)C2)nc1` (configuration not stated), the cytotoxicity at 70.5 h was -12%. On to `CCCc1nc(N2CCCN3CCC[C@H]3C2)c2cnn(C)c2n1`, for which the cytotoxicity at 70.5 h was found to be 15.2%. With `CN1CC(C)(C)CN(C(=O)CCc2ccccc2)CC1=O`, the cytotoxicity at 70.5 h was -1.8%. Turning to `CCNC(=O)NC(=O)C(C)Nc1ccccc1OCCOC` (configuration not stated), the cytotoxicity at 70.5 h is -11.3%.

Consider `CCN(CC)c1ccc(NS(=O)(=O)c2cnn(CC)c2)cn1`, for which the cytotoxicity at 70.5 h was determined as 1.09%.

As to `Fc1ccc(NC2CCCN(Cc3ccncc3)C2)cc1` (configuration not stated), the cytotoxicity at 70.5 h was determined as 26.1%. For the compound `CNc1ncc(C(=O)N2CC[C@@](O)(C3CCOCC3)[C@H](C)C2)cn1`, the cytotoxicity at 70.5 h came to 5.71%. With `O=C(NC1CC2(CCN(CCO)CC2)Oc2ccccc21)c1csnn1` (configuration not stated), the cytotoxicity at 70.5 h is -0.338%. For `CCc1cc(C(=O)N2CCc3nc4c(C)csc4c(=O)n3CC2)on1`, the cytotoxicity at 70.5 h is 20.2%. As for `COCCCN(Cc1ccc(F)cc1Cl)C1CCS(=O)(=O)C1` (configuration not stated), the cytotoxicity at 70.5 h came to 1.64%. `O=C(NCc1ccco1)[C@H]1CC[C@@H]2[C@@H](CCN2c2ncc(F)cn2)O1`: the cytotoxicity at 70.5 h was -10.2%. On to `COCC(=O)N1CC[C@@H]2CN(Cc3ccccc3)S(=O)(=O)[C@@H]2CC1`, for which the cytotoxicity at 70.5 h was -5.37%.
